Data as given in patent publication US20110313672A1, “CELLULAR ANTIOXIDANT ACTIVITY (CAA) ASSAY” (CORNELL UNIVERSITY, priority 2007, published 2011).
Values joined by “and” are separate entries in the source; they are usually repeats but may differ in a detail not shown here. Equal entries are not always repeated. “Also recorded” adds a separate entry of the source. Where two headings read alike, the source gives them in different places.

Experiments:
HepG2 cells = assay: Cellular antioxidant activity (CAA) assay: inhibition of peroxyl radical-induced DCFH oxidation; format: cell-based, human; details: for CAA value: Example 1, pure compounds, EC50 converted to quercetin equivalents
Method: Cells (e.g., human hepatocellular carcinoma cells; HepG2) are seeded at a density of e.g., 6×10^4/well on a 96-well microplate in 100 μL growth medium/well. It is preferred that only the inside wells of e.g., a 96-well microplate are used for the assay, since the outer wells have increased variation compared to that of the inner wells. Twenty-four hours after seeding the growth medium is removed and the wells are washed with PBS. Triplicate wells are treated for 1 h with 100 μL of a test compound (e.g., pure phytochemical compounds or fruit extracts) plus 25 μM DCFH-DA dissolved in treatment medium.
600 μM ABAP is then applied to the cells in 100 μL HBSS and the 96-well microplate is placed into a plate reader e.g., Fluoroskan Ascent FL plate-reader (ThermoLabsystems, Franklin, Mass.) at 37° C. Emission at 538 nm is measured with excitation at 485 nm, for example every 5 min for 1 h. Each plate should include triplicate control and blank wells: control wells contain cells treated with DCFH-DA and oxidant; blank wells contain cells treated with dye and HBSS without oxidant.
A test compound is assayed in multiple wells of e.g., a 96-well cell culture plate. Some wells are washed with 100 μL of phosphate-buffered saline (PBS) prior to the addition of ABAP, while other wells were not washed prior to the addition of ABAP. It was noted that the measured antioxidant activity of some fruit extracts (e.g., blueberries) was different when a PBS wash was used compared to when there was no PBS wash (see Table 2; FIGS. 3 and 4). This is likely due to non-specific binding of certain antioxidant compounds to the outer membrane, or a reduced uptake of the compound, thus the ratio of antioxidant activity values obtained with a PBS wash compared to a non-PBS wash indicates the bioavailability of the test compound. In order to accurately measure the intracellular antioxidant activity of a test compound, a PBS wash prior to the addition of a peroxyl initiator (e.g, ABAP) is necessary. The values obtained for cells assayed using a PBS wash should be compared to values obtained for the same cells assayed without a PBS wash. One of skill in the art can plan and perform experiments on a test compound in the presence and absence of a PBS wash, in order to accurately assess the intracellular antioxidant capacity of the test compound.
After blank subtraction from the fluorescence readings, the area under the curve of fluorescence versus time is integrated to calculate the cellular antioxidant activity (CAA) value at each concentration of pure phytochemical compound or fruit extract as follows:
where ∫SA is the integrated area under the sample fluorescence versus time curve and ∫CA is the integrated area from the control curve. The median effective dose (EC50) was determined for the pure phytochemical compounds and fruit extracts from the median effect plot of log (fa/fu) vs. log (dose), where fa is the fraction affected and fu is the fraction unaffected by the treatment. To quantify intra-experimental variation, the EC50 values are stated as mean±SD for triplicate sets of data obtained from the same experiment. Inter-experimental variation is obtained for some representative pure phytochemical compounds and fruit extracts by averaging the fluorescence values from triplicate wells in each trial to obtain one EC50 value per experiment and calculating the mean±SD for at least four trials. In each experiment, a standard is used, for example quecetin, thus permitting the cellular antioxidant activities for a test compounds to be expressed as μmol quercetin equivalents (QE)/100 μmol compound. Fruit extracts are expressed as μmol QE/100 g fruit. In order to compare the antioxidant quality of different fruits, cellular antioxidant activity (CAA) is also calculated as μmol QE/100 μmol total phenolics.
Human hepatocellular carcinoma HepG2 cells were seeded at a density of 6×10^4/well on a 96-well microplate in 100 μL growth medium/well. […]

[1] = Oxygen radical absorbance capacity (ORAC) assay; details: Example 3, flavonoids, mean ± SD, n ≧ 3
Method: The peroxyl radical scavenging efficacy of selected fruits was measured using the ORAC assay (Prior, R. L., et al (2003) J. Agric. Food Chem. 51:3273-3279). Briefly, 20 μL of blank, Trolox standard, or fruit extracts in 75 mM potassium phosphate buffer, pH 7.4 (working buffer), was added to triplicate wells in a black, clear-bottom, 96-well microplate. The triplicate samples were distributed throughout the microplate and were not placed side-by-side, to avoid any effects on readings due to location. In addition, no outside wells were used, as use of those wells results in greater variation. A volume of 200 μL of 0.96 μM fluorescein in working buffer was added to each well and incubated at 37° C. for 20 min, with intermittent shaking, before the addition of 20 μL of freshly prepared 119 mM ABAP in working buffer using a 12-channel pipetter. The microplate was immediately inserted into a Fluoroskan Ascent FL plate reader (ThermoLabsystems) at 37° C. The decay of fluorescence at 538 nm was measured with excitation at 485 nm every 4.5 min for 2.5 h. The areas under the fluorescence versus time curve for the samples minus the area under the curve for the blank were calculated and compared to a standard curve of the areas under the curve for 6.25, 12.5, 25, and 50 μM Trolox standards minus the area under the curve for blank. ORAC values were expressed as mean micromoles of Trolox equivalents (TE) per 100 g of fruit±SD for triplicate data from one experiment.
ORAC measurements were performed as described herein in Example 2.

[2] = Example 3, Table 7, no PBS wash
[3] = Homo sapiens, HepG2, Example 3, Table 7, PBS wash, flavonoids, mean ± SD, n=3, read-out: EC50
[4] = Homo sapiens, HepG2, Example 3, Table 7, no PBS wash, flavonoids, mean ± SD, n=3, read-out: EC50
[5] = Homo sapiens, HepG2, Example 1, Table 1, PBS wash, pure phytochemical compounds, mean ± SD, n=3, read-out: EC50 for inhibition of peroxyl radical-induced DCFH oxidation
[6] = Homo sapiens, HepG2, Example 1, Table 1, no PBS wash, pure phytochemical compounds, mean ± SD, n=3, read-out: EC50 for inhibition of peroxyl radical-induced DCFH oxidation
[7] = CAA assay, either protocol or protocol not specified

Row | SMILES | CAA (HepG2 cells; Example 3, Table 7, PBS wash) | CAA (HepG2 cells; [2]) | EC50 (HepG2 cells; [3]) [µM] | EC50 (HepG2 cells; [4]) [µM] | ORAC [1] | CAA value (HepG2 cells; PBS wash) [µmol QE/100 µmol] | CAA value (HepG2 cells; no PBS wash) [μmol QE/100 μmol] | EC50 (HepG2 cells; [5]) [µM] | EC50 (HepG2 cells; [6]) [µM] | cellular antioxidant activity, result in words (HepG2 cells; [7]) | other results
1 | O=C(O[C@@H]1Cc2c(O)cc(O)cc2O[C@@H]1c1ccc(O)c(O)c1)c1cc(O)c(O)c(O)c1 [ECG, (−)-epicatechin gallate] | 31.9 ± 2.2 μmol of QE/100 μmol | 62.1 ± 1.9 μmol of QE/100 μmol | 25.6 ± 1.8 | 14.2 ± 0.4 | 7.71 ± 1.57 cde μmol of TE/μmol |  |  |  |  |  | 
2 | Oc1cc(O)c2c(c1)O[C@H](c1cc(O)c(O)c(O)c1)[C@H](O)C2 [EGC, (−)-epigallocatechin] |  | 12.1 ± 2.2 μmol of QE/100 μmol | > 100 | 74.2 ± 12.9 | 3.11±0.73 μmol of TE/μmol and 3.11 ± 0.73 cde μmol of TE/μmol |  |  |  |  |  | cellular antioxidant activity, result in words (HepG2 cells; PBS wash protocol): low activity at the concentrations tested
3 | O=c1c(O)c(-c2ccc(O)cc2)oc2cc(O)cc(O)c12 [Kaempferol, kaempferol] | 85.1 ± 2.4 μmol of QE/100 μmol | 74.6 ± 4.8 μmol of QE/100 μmol | 9.57 ± 0.27 | 11.9 ± 0.8 | 7.19 ± 1.29 def μmol of TE/μmol | 81.1 ± 2.7 | 75.3±4.7 | 6.31 ± 0.21 | 7.85 ± 0.51 |  | 
4 | O=c1cc(-c2ccc(O)c(O)c2)oc2cc(O)cc(O)c12 [Luteolin, luteolin] | 29.5 ± 2.1 μmol of QE/100 μmol | 37.1 ± 0.0 μmol of QE/100 μmol | 27.7 ± 2 | 23.8 | 8.55 ± 0.85 cde μmol of TE/μmol | 22.2 ± 1 | 22.6±0.2 | 23.1 ± 1 | 26.1 ± 0.26 |  | 
5 | O=c1c(O)c(-c2cc(O)c(O)c(O)c2)oc2cc(O)cc(O)c12 [Myricetin, myricetin] | 11.5 ± 0.7 μmol of QE/100 μmol | 28.4 ± 0.9 μmol of QE/100 μmol | 70.7 ± 4.2 | 31.1 ± 1 | 4.55±0.50 μmol of TE/μmol and 4.55 ± 0.50 fgh μmol of TE/μmol | 33.1 ± 1 | 36.8±3.8 | 15.4 ± 0.5 | 16.1 ± 1.7 |  | EC50 (HepG2 cells; Homo sapiens, HepG2, Example 3, text, no PBS wash, read-out: EC50): 31.1 ± 1 µM
6 | O=c1c(O[C@@H]2O[C@H](CO)[C@@H](O)[C@H](O)[C@H]2O)c(-c2ccc(O)c(O)c2)oc2cc(O)cc(O)c12 [Q-3-G, quercetin-3-β-D-glucoside] | 6.6 ± 0.1 μmol of QE/100 μmol | 7.7 ± 0.1 μmol of QE/100 μmol |  |  | 8.11 ± 1.86 cde μmol of TE/μmol |  |  |  |  | low amount of activity; also recorded: low or no cellular antioxidant activity | EC50 (HepG2 cells; Example 3, Table 7, PBS wash, flavonoids, mean ± SD, n=3, read-out: EC50): 122 ± 1 µM; EC50 (HepG2 cells; Example 3, Table 7, no PBS wash, flavonoids, mean ± SD, n=3, read-out: EC50): 115 ± 2 µM
7 | O=c1c(O)c(-c2ccc(O)c(O)c2)oc2cc(O)cc(O)c12 [Quercetin, quercetin] | 105.7 ± 3.7 μmol of QE/100 μmol | 99.1 ± 4.8 μmol of QE/100 μmol | 7.71 ± 0.26 | 8.93 ± 0.44 | 8.04 ± 2.37 cde μmol of TE/μmol |  |  |  | 5.92 ± 0.07 |  | EC50 (HepG2 cells; Example 1, Table 1, PBS wash, pure phytochemical compounds, mean ± SD, n=3, read-out: EC50 for inhibition of peroxyl radical-induced DCFH oxidation): 5.09 ± 0.19 µM; EC50 (HepG2 cells; Homo sapiens, HepG2, Table 2, no PBS wash, mean ± SD over the trials, read-out: Interexperimental EC50): 5.89 ± 0.36 µM; EC50 (HepG2 cells; Homo sapiens, HepG2, Table 2, no PBS wash, one line per trial (trials 1-5), n=3, read-out: Intraexperimental EC50): 6.07 ± 0.25 µM; EC50 (HepG2 cells; Homo sapiens, HepG2, Table 3, PBS wash, mean ± SD over the trials, read-out: Interexperimental EC50): 5.12 ± 0.58 µM; EC50 (HepG2 cells; Homo sapiens, HepG2, Table 3, PBS wash, one line per trial (trials 1-5), n=3, read-out: Intraexperimental EC50): 4.48 ± 0.18 µM
8 | O=C1c2c(O)cc(O)cc2O[C@H](c2ccc(O)c(O)c2)[C@H]1O [Taxifolin, taxifolin] |  |  | > 200 | > 200 | 9.74 ± 1.20 bcd μmol of TE/μmol |  |  | > 150 | > 150 | low or no cellular antioxidant activity; also recorded: low CAA | cellular antioxidant activity, result in words (HepG2 cells; PBS wash protocol): low activity at the concentrations tested; cellular antioxidant activity, result in words (HepG2 cells; no PBS wash protocol): activity only at doses much higher than their cytotoxic concentrations; also recorded: low, but unquantifiable, activity; also recorded: low but unquantifiable activity
9 | O=c1c(O)c(-c2ccccc2)oc2cc(O)cc(O)c12 [galangin] | 107.8 ± 6.4 μmol of QE/100 μmol | 66.3 ± 1.1 μmol of QE/100 μmol | 7.56 ± 0.46 | 13.3 ± 0.2 | 2.63 ± 1.31 gh μmol of TE/μmol |  |  |  |  |  | ORAC ([1]; listed as Galangin): 2.63±1.31 μmol of TE/μmol
10 | O=c1c(-c2ccc(O)cc2)coc2cc(O)cc(O)c12 [genistein] |  |  |  |  | 13.4±2.8 μmol of TE/μmol and 13.4 ± 2.8 a μmol of TE/μmol |  |  |  |  | no cellular antioxidant activity; also recorded: no CAA | cellular antioxidant activity, result in words (HepG2 cells; CAA assay, either protocol or protocol not specified, listed as Genistein): no activity; EC50 (HepG2 cells; Example 3, Table 7, PBS wash, flavonoids, mean ± SD, n=3): no activity; EC50 (HepG2 cells; Example 3, Table 7, no PBS wash, flavonoids, mean ± SD, n=3): no activity
